The values that follow come from patent publication US20100076072A1, “COMPOSITIONS AND METHODS OF VITAMIN E ADMINISTRATION” (NORTHWESTERN UNIVERSITY, priority 2008, published 2010).

For data set [1], the system named is VCAM-1-dependent lymphocyte migration across mHEVa endothelial cells. The data set is described as follows: Transendothelial migration assay with physiological laminar flow (parallel plate flow chamber). Format: cell-based, mouse. The settings on record: endothelial cells pretreated overnight, washed; 15 minutes, 2 dynes/cm^2. How it is done: In vitro cell association and migration assays with laminar flow. The parallel plate flow chamber was used to examine migration under conditions of laminar flow. Endothelial cells were grown to confluence on slides and then the slide was placed in a parallel plate flow chamber. In vivo, in the absence of inflammation, the rapid fluid dynamics of the blood result in blood cells located midstream of the vascular flow. However, during inflammation, there is a change of fluid dynamics. […]
Therefore, spleen cells (3×10^6) were added to the flow chamber (35 cm^2) at 2 dynes/cm^2. […] To initiate spleen cell contact with the endothelial cells in vitro, the spleen cells were allowed to settle in the chamber as monitored by microscopy and then 2 dynes/cm^2 was applied for the 15 minute laminar flow assay. […] To quantify migrated spleen cells at 15 minutes, phase contrast microscopy was used to count migrated cells that are phase dark. Under laminar flow, spleen cell migration was detected at 15 minutes. The number of spleen cells that were associated but not migrated (phase light cells) at 15 minutes is low since in 15 minutes, the majority of non-migrating cells roll off the monolayer of endothelial cells as determined by microscopy. […]

Data set [2] is described as follows: Tocopherol levels in lung tissue and plasma (HPLC, electrochemical detector). Format: in vivo, mouse. How it is done: Body weight and tocopherol levels in these mice were examined. […] Lungs were perfused to remove the blood, homogenized in ethanol and extracted with hexane. Tocopherol concentrations were determined by HPLC with an electrochemical detector.

In data set [3] the test system is OVA-challenged mice (experimental asthma). Nature of the data set: OVA experimental asthma: lung tissue eosinophils (anti-major basic protein immunolabeling). Format: in vivo, mouse. The settings on record: daily s.c. 2 μg tocopherol days 13-20, day 21.
Data set [4] in a line: Body and lung weights on day 21. Format: in vivo, mouse. The settings on record: mice, day 21, daily s.c. tocopherol days 13-20. The procedure:
Tissue collection. After airway function analysis, mice were weighed, sacrificed and the lungs flushed twice with 0.8 ml PBS. The cells in this bronchoalveolar lavage (BAL) were cytospun onto slides, DiffQuik (Baxter) stained, and differential cell counts were performed. BAL supernatants were snap frozen and stored at −80° C. for cytokine analysis. Lungs were perfused free of blood and one quarter of the lung was tied off, collected, weighed, snap frozen, and stored at −80° C. for tocopherol analysis and PGE2 analysis. One quarter of the lung was collected and placed in RNA later for analysis of mRNA for eotaxin expression. The other half of the lung was injected with 40% freezing compound, collected and stored at −80° C. for tissue sections and histological staining Frozen sections were prepared rather than paraffin sections since the anti-mouse VCAM-1 antibodies only bind to VCAM-1 in frozen sections.
Body weight and tocopherol levels in these mice were examined. […] Consistent with this, the body weight and lung weights of the mice studied during the development of embodiments of the present invention were unaltered by the α-tocopherol or γ-tocopherol treatments (SEE FIG. 3). Lungs were perfused to remove the blood, homogenized in ethanol and extracted with hexane. Tocopherol concentrations were determined by HPLC with an electrochemical detector. The lung tissue and plasma levels of tocopherols were elevated (SEE FIG. 4). […] The level of γ-tocopherol in the lung tissue of γ-tocopherol-treated mice was 10 fold lower than lung tissue α-tocopherol in the α-tocopherol-treated mice. This 10 fold difference in α-tocopherol and γ-tocopherol levels in the lung tissues may be caused preferential transfer of α-tocopherol in the liver by a TTP (20, 24), although the present invention is not limited to any particular mechanism of action and an understanding of the mechanism of action is not necessary to practice the present invention. […] Administration of tocopherols also had no effect on the low levels of δ-tocopherol in the lung (SEE FIG. 4A).

Data set [5] relates to VCAM-1-dependent spleen cell migration across mHEVa endothelial cells. The data set is described as follows: In vitro Transwell migration assay. Format: cell-based, mouse. The procedure: In vitro Transwell migration assay. mHEVa cells were grown to confluence on Transwells with 12 μm pores (Costar Cambridge, Mass.). The mHEVc cell monolayers block nonspecific accumulation of red blood cells in the lower transwell chamber and block FITC-albumin diffusion. Spleen cell migration is stimulated by mHEV cell secretion of the chemokine MCP-1. The number of lymphocytes that migrate is linear from 0-24 hrs followed by a plateau. Spleen cells that migrate are greater than 95% lymphocytes and the percentage of cells that migrate is consistent with other in vitro models with endothelial cell lines or cytokine-activated microvascular endothelial cells.
In this transendothelial migration assay used, the migrated spleen cells are >95% lymphocytes and the B cells and T cells migrate in response to MCP-1. […]

For data set [6], the system named is delayed-type-hypersensitivity responses. To be noted: in vivo; cited from earlier work.
The subject of data set [7] is adhesion molecule expression. The settings on record: atherosclerosis models; cited from earlier work.

The structures appear in SMILES notation.

With `Cc1c(C)c2c(c(C)c1O)CC[C@@](C)(CCC[C@H](C)CCC[C@H](C)CCCC(C)C)O2` [α-tocopherol, d-α-tocopherol, reference compound], the “VCAM-1-dependent lymphocyte migration under laminar flow” value in data set [1] is recorded as “inhibited”. In data set [2] (day 21), the “Increase in α-tocopherol in lungs of α-tocopherol-treated mice” value is “five-fold increase”. For the same molecule, the “Lung tissue level of the other tocopherol (α vs γ)” value in data set [2] (mice, day 21) was “did not alter”. For the same molecule, the “Lung tissue level of the administered tocopherol” value in data set [2] (mice, day 21, daily s.c. 2 μg tocopherol days 13-20) was “elevated levels”. Also, in data set [3], the “Eosinophils in the lung tissue” value is “reduced”. Moreover, in data set [4], the Body weight entry is “unaltered” and the Lung weights result was “unaltered”. The “Migration after pretreatment of leukocytes with tocopherol and washing” value in data set [5] (leukocytes pretreated, washed) is “no effect on migration”. Moreover, in data set [5] (tocopherol left in culture, 24 hours after addition of spleen cells, 80 μM α / 5 μM γ), the “Lymphocyte migration in transwell migration assay” value is given as “inhibited lymphocyte migration”. Further, the Delayed-type-hypersensitivity responses entry in data set [6] was “reduces”. In addition, the Adhesion molecule expression result in data set [7] was “inhibit”.
